Laboratory results reported in ChEMBL document CHEMBL2150919, “Benzenesulfonyl and Benzenesulfonamide as Modulators of the 5-HT6 Receptor: Patent Highlight” (ACS Med Chem Lett, 2012).

The compounds below were run against 5-hydroxytryptamine receptor 6 (Homo sapiens, UniProt P50406) (assay: Displacement of [3H]-lysergic acid diethylamine from human recombinant 5-HT6 receptor).
Chain of 5-hydroxytryptamine receptor 6 (P50406 whole entry): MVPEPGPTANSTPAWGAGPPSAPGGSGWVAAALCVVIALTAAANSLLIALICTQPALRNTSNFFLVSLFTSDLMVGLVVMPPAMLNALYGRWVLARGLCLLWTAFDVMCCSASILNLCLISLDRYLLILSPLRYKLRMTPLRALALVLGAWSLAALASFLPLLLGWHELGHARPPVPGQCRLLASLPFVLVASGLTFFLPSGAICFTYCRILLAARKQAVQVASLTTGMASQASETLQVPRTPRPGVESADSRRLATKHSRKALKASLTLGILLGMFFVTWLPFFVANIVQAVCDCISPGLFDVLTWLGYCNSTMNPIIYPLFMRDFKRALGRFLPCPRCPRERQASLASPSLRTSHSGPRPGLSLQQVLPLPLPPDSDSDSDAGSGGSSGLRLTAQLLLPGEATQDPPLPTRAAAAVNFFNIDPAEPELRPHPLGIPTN

SMILES	Ki
COCc1cccc(NS(=O)(=O)c2ccc(C)c(N3CCNCC3)c2)c1	< 10 nM
COCc1cccc(NS(=O)(=O)c2ccc(OC)c(N3CCNCC3)c2)c1	< 10 nM
COCc1ccccc1NS(=O)(=O)c1ccc(OC)c(N2CCNCC2)c1	< 10 nM
COc1ccc(S(=O)(=O)Nc2cccc(COCC(F)(F)F)c2)cc1N1CCNCC1	< 10 nM
COCc1cccc(NS(=O)(=O)c2ccc(OC)c(N3CCN(C)CC3)c2)c1	< 10 nM
COc1ccc(S(=O)(=O)Nc2cccc(C(C)OC)c2)cc1N1CCNCC1 (stereo not drawn)	< 20 nM
COCc1cccc(N(C)S(=O)(=O)c2ccc(OC)c(N3CCNCC3)c2)c1	< 100 nM
COCc1ccc(NS(=O)(=O)c2ccc(OC)c(N3CCNCC3)c2)cc1	< 100 nM
COCc1ccccc1NS(=O)(=O)c1ccc(C)c(N2CCNCC2)c1	< 100 nM

Now from value to compound:

Ki	SMILES
< 10 nM	CCOc1ccc(S(=O)(=O)Nc2cccc(COC)c2)cc1N1CCNCC1
< 10 nM	CCOCc1cccc(NS(=O)(=O)c2ccc(OC)c(N3CCNCC3)c2)c1
< 20 nM	COCc1cccc(NS(=O)(=O)c2ccc(OC)c(N3CCCNCC3)c2)c1
< 10 nM	CCOc1ccc(S(=O)(=O)Nc2ccccc2COC)cc1N1CCNCC1
< 10 nM	CCOc1ccc(S(=O)(=O)Nc2ccccc2COC)cc1N1CCN(C)CC1
< 10 nM	CCOc1ccc(S(=O)(=O)Nc2cccc(COC)c2)cc1N1CCN(C)CC1
< 100 nM	COCc1cccc(NS(=O)(=O)c2ccc(C)c(N3CCN(C)CC3)c2)c1
< 10 nM	COCc1ccccc1NS(=O)(=O)c1ccc(OC)c(N2CCN(C)CC2)c1
< 100 nM	COCc1ccccc1NS(=O)(=O)c1ccc(C)c(N2CCN(C)CC2)c1
